Values quoted from earlier work, collected in publication PMC9851200, “Multiparameter phenotypic screening for endogenous TFEB and TFE3 translocation identifies novel chemical series modulating lysosome function” (Autophagy, 2022).

Legend:
Parameters in all cases: method as in original PKIS2 published data
[1] = molecular target: kinases (KINOMEscan panel) (Homo sapiens, UniProt Q9Y243); conditions: kinase AKT3; Published KINOMEscan; ref original PKIS2 published data; cited from earlier work
[2] = molecular target: T1, kinases (KINOMEscan panel) (Homo sapiens, UniProt Q96D53); conditions: kinase COQ8B; Published KINOMEscan; ref original PKIS2 published data; cited from earlier work
T1 sequence (Q96D53 1-544): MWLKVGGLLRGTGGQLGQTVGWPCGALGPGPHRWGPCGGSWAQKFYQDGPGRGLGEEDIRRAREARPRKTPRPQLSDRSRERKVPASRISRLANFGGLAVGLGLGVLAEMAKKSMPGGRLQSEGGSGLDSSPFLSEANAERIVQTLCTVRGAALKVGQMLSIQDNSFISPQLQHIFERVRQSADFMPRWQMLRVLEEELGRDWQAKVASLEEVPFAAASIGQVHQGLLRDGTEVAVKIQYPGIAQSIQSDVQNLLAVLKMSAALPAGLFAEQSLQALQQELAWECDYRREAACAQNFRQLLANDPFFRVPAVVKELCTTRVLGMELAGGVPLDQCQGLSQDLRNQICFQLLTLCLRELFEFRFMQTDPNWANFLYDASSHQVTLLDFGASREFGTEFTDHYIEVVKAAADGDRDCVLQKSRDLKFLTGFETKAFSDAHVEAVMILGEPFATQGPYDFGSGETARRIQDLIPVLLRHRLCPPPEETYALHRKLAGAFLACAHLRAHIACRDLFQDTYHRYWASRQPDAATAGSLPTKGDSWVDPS

[3] = molecular target: T2, kinases (KINOMEscan panel) (Homo sapiens, UniProt P54762); conditions: kinase EPHB1; Published KINOMEscan; ref original PKIS2 published data; cited from earlier work
T2 sequence (P54762 18-984): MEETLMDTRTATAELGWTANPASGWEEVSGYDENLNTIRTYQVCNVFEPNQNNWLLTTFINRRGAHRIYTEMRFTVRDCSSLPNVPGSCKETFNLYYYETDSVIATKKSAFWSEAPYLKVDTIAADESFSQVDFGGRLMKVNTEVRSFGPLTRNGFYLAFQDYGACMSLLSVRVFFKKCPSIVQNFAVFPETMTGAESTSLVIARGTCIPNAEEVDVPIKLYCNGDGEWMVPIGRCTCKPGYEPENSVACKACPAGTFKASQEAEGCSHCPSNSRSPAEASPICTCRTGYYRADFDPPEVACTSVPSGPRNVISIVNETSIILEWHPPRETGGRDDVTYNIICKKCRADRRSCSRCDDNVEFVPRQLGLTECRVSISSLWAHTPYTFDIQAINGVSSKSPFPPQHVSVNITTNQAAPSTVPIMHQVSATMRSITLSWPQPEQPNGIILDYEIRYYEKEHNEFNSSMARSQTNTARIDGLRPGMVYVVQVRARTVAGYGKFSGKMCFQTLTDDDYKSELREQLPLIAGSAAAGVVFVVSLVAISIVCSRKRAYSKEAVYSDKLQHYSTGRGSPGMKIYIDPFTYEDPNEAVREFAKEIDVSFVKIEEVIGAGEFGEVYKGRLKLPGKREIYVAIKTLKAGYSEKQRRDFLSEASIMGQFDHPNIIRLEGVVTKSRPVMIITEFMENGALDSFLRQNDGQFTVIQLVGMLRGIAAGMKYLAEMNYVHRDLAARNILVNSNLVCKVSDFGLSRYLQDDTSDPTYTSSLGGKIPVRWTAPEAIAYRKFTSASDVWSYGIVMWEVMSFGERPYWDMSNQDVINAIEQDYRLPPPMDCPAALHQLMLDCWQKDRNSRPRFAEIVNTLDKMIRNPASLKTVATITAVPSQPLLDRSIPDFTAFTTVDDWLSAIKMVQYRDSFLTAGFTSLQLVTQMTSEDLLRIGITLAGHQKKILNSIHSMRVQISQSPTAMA

[4] = molecular target: T3, kinases (KINOMEscan panel) (Homo sapiens, UniProt O15530); conditions: Published KINOMEscan; ref original PKIS2 published data; cited from earlier work
T3 sequence (O15530 1-556): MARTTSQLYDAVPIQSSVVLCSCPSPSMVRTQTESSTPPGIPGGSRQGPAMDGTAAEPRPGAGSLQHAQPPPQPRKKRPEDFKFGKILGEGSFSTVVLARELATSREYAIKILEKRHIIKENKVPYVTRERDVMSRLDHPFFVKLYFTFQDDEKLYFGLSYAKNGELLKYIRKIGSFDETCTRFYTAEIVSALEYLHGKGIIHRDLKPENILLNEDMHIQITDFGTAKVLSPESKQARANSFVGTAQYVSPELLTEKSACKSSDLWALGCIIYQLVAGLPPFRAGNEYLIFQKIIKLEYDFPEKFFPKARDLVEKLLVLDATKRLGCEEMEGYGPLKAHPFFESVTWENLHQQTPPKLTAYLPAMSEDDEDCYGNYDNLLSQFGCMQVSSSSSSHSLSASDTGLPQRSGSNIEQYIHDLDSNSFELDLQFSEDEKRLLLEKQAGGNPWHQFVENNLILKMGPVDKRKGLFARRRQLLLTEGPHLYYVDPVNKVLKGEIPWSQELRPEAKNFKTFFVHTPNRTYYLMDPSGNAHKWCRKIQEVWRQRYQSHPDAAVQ

[5] = molecular target: kinases (KINOMEscan panel) (Homo sapiens, UniProt P29597); conditions: Published KINOMEscan, ref original PKIS2 published data, cited from earlier work
[6] = molecular target: kinases (KINOMEscan panel) (Homo sapiens, UniProt P0C1S8); conditions: WEE2; Published KINOMEscan; ref original PKIS2 published data; cited from earlier work
[7] = molecular target: kinases (KINOMEscan panel) (Homo sapiens, UniProt Q8IVW4); conditions: kinase CDKL3; Published KINOMEscan; ref original PKIS2 published data; cited from earlier work
Sequence of kinases (KINOMEscan panel) (Homo sapiens, UniProt Q8IVW4) (Q8IVW4 whole entry): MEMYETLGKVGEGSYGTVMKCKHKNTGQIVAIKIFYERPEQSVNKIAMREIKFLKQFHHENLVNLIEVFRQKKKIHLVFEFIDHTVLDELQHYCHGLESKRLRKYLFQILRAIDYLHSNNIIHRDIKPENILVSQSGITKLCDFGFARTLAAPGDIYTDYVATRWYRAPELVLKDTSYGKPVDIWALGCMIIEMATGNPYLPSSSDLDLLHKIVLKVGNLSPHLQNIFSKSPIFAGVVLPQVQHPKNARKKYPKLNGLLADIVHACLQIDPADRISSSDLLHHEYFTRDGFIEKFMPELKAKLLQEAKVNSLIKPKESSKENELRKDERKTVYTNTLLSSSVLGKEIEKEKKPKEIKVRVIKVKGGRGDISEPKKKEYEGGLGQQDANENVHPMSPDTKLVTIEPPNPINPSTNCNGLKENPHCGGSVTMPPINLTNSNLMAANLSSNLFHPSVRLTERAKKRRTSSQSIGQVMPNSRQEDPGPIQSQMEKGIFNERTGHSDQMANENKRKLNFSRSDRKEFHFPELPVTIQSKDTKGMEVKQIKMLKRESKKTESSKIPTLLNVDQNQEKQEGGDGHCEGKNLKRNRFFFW

Sequence of kinases (KINOMEscan panel) (Homo sapiens, UniProt P29597) (P29597 whole entry): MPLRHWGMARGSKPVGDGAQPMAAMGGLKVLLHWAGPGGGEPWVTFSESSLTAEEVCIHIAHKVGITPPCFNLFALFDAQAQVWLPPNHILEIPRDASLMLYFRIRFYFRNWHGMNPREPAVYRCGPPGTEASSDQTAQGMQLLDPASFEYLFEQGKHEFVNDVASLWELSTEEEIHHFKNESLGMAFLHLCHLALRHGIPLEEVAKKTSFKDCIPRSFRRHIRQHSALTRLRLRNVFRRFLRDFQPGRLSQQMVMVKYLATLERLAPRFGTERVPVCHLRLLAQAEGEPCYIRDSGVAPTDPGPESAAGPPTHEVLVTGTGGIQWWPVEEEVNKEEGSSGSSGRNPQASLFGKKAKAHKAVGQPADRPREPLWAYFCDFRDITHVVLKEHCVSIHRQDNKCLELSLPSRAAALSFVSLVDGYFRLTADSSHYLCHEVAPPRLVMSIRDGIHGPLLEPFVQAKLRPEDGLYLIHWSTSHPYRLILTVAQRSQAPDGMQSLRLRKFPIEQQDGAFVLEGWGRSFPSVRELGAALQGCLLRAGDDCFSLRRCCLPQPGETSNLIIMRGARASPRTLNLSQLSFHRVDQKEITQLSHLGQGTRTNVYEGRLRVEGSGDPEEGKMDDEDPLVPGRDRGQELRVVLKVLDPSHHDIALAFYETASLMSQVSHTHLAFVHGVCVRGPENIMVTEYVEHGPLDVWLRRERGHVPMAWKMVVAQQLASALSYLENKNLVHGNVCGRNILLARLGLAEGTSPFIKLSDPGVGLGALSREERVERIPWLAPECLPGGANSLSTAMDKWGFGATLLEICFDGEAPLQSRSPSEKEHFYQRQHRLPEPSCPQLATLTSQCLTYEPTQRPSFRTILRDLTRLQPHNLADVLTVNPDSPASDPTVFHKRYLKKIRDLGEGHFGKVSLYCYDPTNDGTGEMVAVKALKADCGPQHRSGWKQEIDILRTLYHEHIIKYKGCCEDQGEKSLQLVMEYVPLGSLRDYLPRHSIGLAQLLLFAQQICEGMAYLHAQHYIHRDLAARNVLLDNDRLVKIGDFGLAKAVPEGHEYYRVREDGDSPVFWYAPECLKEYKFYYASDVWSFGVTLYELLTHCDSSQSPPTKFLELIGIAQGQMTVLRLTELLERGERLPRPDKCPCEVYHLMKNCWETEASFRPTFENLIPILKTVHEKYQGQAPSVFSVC
Sequence of kinases (KINOMEscan panel) (Homo sapiens, UniProt P0C1S8) (P0C1S8 whole entry): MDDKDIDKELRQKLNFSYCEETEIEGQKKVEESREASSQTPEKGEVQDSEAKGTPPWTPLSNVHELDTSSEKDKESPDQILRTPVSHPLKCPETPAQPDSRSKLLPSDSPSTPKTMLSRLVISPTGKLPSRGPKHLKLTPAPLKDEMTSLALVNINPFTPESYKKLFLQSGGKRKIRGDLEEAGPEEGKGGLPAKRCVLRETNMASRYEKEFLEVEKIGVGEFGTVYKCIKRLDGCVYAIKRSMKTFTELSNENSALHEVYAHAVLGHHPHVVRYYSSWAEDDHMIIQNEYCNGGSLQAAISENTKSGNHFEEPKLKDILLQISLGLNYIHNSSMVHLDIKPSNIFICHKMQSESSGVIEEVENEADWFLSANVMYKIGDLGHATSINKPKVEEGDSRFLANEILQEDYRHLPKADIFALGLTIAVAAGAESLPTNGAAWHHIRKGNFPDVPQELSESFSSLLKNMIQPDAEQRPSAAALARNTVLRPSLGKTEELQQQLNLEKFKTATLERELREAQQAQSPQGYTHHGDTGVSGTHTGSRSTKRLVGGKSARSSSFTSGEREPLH
Sequence of kinases (KINOMEscan panel) (Homo sapiens, UniProt Q9Y243) (Q9Y243 whole entry): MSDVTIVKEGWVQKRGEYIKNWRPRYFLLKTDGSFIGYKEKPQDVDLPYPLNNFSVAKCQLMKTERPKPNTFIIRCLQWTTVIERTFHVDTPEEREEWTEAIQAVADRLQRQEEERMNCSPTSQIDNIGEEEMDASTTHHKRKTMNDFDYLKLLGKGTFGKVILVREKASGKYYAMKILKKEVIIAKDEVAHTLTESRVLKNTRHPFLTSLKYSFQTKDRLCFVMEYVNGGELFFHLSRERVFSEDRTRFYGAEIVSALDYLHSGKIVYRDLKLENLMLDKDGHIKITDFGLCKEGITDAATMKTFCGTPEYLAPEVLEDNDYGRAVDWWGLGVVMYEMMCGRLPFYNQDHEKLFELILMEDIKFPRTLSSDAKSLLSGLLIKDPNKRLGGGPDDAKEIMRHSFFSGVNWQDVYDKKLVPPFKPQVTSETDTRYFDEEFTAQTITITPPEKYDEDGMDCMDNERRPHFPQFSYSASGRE

SMILES: Cc1cccc(-c2nc(Nc3ccncc3)c3ccccc3n2)n1 [NK215]
- KINOMEscan AKT3 [1]: 0
- KINOMEscan COQ8B [2]: 0
- KINOMEscan EPHB1 [3]: 3
- KINOMEscan PDPK1 [4]: 24
- KINOMEscan TYK2(JH2domain-pseudokinase) ([5]; TYK2(JH2domain-pseudokinase)): 40
- KINOMEscan TYK2(JH1domain-catalytic) ([5]; kinase TYK2(JH1domain-catalytic)): 8
- KINOMEscan WEE2 [6]: 8
- KINOMEscan CDKL3 [7]: 0
